Source: ChEMBL document CHEMBL1150292, “4-benzyl-1H-imidazoles with oxazoline termini as histamine H3 receptor agonists” (J Med Chem, 2008)

Tests used:
[1] = target: Histamine H3 receptor (Cavia porcellus) (UniProt Q9JI35); settings: Ileum
Histamine H3 receptor [2] = target: T1, Histamine H3 receptor (Cavia porcellus, UniProt Q9JI35); assay: Activity at histamine H3 receptor in guinea pig ileum; type: tissue-based
Histamine H3 receptor [3] = target: T2, Histamine H3 receptor (Homo sapiens, UniProt Q9Y5N1); assay: Displacement of [3H]N-alpha-methylhistamine from human histamine H3 receptor expressed in CHO cells; type: cell-based
T2 sequence (Q9Y5N1 whole entry): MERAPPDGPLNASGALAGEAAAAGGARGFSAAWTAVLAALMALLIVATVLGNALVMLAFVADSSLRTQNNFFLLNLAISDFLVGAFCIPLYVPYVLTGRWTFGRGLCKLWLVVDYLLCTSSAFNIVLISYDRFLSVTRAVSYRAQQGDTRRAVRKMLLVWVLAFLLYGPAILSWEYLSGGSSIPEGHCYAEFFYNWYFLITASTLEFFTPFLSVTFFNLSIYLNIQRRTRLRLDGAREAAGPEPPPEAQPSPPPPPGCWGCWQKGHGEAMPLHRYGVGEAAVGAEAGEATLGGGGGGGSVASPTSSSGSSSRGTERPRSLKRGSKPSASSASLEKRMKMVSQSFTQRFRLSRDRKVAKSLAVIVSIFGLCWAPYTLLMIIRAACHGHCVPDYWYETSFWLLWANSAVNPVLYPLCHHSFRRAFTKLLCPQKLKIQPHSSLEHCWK

Cytochrome P450 2D6 = Cytochrome P450 2D6 (Homo sapiens, UniProt P10635); assay: Inhibition of CYP2D6 in human liver microsomes assessed as dextromethorphan O-demethylase activity; type: ADME, Microsome
Chain of Cytochrome P450 2D6 (P10635 whole entry): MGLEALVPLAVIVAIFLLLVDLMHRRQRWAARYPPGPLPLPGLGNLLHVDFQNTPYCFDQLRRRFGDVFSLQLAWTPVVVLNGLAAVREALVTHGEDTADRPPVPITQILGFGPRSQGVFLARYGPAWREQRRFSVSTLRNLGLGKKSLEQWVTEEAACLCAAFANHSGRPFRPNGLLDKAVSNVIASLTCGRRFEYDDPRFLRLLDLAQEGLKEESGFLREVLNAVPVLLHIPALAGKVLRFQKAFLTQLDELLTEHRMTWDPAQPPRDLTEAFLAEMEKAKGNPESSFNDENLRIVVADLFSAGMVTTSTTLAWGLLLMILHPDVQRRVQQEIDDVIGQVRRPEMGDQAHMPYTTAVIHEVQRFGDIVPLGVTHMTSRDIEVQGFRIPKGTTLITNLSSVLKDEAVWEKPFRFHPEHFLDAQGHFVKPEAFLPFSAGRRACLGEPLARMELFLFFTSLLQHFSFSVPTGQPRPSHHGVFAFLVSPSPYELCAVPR

[4] = Inhibition of […] in human liver microsomes assessed as midazolam 1'-hydroxylase activity; type: ADME, Microsome
[5] = target: Histamine H1 receptor (Homo sapiens) (UniProt P35367); assay: Inhibition of histamine H1 receptor at 10 uM
Chain of Histamine H1 receptor (Homo sapiens) (P35367 whole entry): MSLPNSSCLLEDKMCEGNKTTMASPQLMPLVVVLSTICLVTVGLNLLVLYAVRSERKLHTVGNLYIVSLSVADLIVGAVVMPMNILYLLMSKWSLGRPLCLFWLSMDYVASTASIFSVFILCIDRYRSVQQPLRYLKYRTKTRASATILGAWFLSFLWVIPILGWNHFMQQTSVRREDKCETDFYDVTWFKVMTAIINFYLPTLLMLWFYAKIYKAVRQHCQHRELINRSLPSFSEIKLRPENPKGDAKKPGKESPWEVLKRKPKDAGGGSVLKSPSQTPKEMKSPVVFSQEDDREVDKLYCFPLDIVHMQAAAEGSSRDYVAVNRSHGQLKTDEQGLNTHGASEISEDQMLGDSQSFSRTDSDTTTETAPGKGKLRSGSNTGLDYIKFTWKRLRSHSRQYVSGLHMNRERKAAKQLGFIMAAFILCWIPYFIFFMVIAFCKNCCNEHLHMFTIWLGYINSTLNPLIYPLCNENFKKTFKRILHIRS

[6] = target: Histamine H2 receptor (Homo sapiens) (UniProt P25021); assay: Inhibition of histamine H2 receptor at 10 uM
Chain of Histamine H2 receptor (Homo sapiens) (P25021 whole entry): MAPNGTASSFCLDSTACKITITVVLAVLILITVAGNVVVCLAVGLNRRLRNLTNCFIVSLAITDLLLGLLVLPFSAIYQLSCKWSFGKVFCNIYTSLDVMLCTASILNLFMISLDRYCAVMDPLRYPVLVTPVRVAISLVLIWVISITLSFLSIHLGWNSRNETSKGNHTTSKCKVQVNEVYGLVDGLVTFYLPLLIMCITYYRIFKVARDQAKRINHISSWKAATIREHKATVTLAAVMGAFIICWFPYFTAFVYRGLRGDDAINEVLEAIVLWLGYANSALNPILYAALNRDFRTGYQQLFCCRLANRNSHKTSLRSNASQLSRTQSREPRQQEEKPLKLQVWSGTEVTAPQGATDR

Histamine H3 receptor [7] = target: T2, Histamine H3 receptor; assay: Agonist activity at human histamine H3 receptor assessed as effect on [35S]GTPgammaS binding; type: functional
Histamine H4 receptor [8] = target: T3, Histamine H4 receptor (Homo sapiens, UniProt Q9H3N8); assay: Displacement of [3H]histamine from human histamine H4 receptor expressed in CHO cells; type: cell-based
T3 sequence (Q9H3N8 whole entry): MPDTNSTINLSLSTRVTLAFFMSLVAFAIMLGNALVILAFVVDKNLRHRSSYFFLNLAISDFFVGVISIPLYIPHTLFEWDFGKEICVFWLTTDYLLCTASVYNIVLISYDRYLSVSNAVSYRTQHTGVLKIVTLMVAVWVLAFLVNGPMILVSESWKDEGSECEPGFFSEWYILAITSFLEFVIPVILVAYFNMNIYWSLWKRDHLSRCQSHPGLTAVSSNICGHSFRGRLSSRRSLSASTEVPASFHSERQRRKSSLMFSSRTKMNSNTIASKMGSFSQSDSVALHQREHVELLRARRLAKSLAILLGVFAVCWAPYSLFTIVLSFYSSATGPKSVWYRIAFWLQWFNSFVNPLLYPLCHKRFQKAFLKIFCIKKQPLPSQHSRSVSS

Histamine H3 receptor [9] = target: T1, Histamine H3 receptor; assay: Antagonist activity at guinea pig histamine H3 receptor assessed as inhibition of electrically induced twitch contraction; type: functional; settings: read-out: pA2 (converted)
Histamine H3 receptor [10] = target: T2, Histamine H3 receptor; assay: Agonist activity at human histamine H3 receptor assessed as beta galactosidase activity; type: functional
Histamine H4 receptor [11] = target: T3, Histamine H4 receptor; assay: Displacement of [3H]histamine from human histamine H4 receptor expressed in CHO cells at 10 uM; type: cell-based
Histamine H3 receptor [12] = target: Histamine H3 receptor (Rattus norvegicus, UniProt Q9QYN8); assay: Agonist activity at histamine H3 receptor in rat cortex
Chain of Histamine H3 receptor (Rattus norvegicus, UniProt Q9QYN8) (Q9QYN8 whole entry): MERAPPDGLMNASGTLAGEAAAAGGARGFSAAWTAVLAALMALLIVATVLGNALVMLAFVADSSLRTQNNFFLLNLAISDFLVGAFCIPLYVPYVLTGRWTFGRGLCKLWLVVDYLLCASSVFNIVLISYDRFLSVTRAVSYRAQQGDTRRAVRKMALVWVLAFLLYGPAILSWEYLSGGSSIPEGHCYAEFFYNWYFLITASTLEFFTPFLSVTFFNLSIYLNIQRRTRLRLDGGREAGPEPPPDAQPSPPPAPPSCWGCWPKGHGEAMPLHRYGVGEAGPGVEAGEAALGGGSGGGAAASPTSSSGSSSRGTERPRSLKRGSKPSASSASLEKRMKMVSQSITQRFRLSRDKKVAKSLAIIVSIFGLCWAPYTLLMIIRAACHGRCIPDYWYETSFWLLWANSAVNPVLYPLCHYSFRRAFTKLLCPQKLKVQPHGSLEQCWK

[13] = target: Histamine H3 receptor (Rattus norvegicus) (UniProt Q9QYN8); settings: Cortex
Chain of Histamine H3 receptor (Rattus norvegicus) (Q9QYN8 whole entry): as above

T1 sequence (Q9JI35 whole entry): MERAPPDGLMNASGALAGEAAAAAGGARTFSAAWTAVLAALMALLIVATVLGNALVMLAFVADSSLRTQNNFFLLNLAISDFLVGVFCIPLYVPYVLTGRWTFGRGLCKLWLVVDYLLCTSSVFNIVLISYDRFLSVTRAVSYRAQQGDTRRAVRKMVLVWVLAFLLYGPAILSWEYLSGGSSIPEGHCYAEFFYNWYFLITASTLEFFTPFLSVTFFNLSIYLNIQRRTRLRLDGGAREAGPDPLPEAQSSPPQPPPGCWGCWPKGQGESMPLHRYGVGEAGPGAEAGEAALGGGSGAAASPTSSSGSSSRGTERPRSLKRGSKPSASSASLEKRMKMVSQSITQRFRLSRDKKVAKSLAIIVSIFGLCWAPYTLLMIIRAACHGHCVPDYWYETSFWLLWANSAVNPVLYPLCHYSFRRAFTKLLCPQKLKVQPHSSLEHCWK
Chain of Histamine H3 receptor (Cavia porcellus) (Q9JI35 whole entry): as above

Compound: C[C@H]1CNC[C@@H]1c1c[nH]cn1
- pD2 [1]: 7.5
- Ki (Histamine H3 receptor [2]): 2.51 nM

Compound: C(#Cc1cccc2ccccc12)c1cccc(Cc2c[nH]cn2)c1
- Ki (Histamine H3 receptor [3]): 1740 nM

Compound: CCCC#Cc1cccc(Cc2c[nH]cn2)c1
- Ki (Histamine H3 receptor [3]): 3.16 nM
- IC50 (Cytochrome P450 2D6): 644 nM
- IC50 [4]: 1640 nM

Compound: CC(C)(C)C#Cc1ccc(Cc2c[nH]cn2)cc1
- Ki (Histamine H3 receptor [3]): 537 nM

Compound: c1cc(Cc2cnc[nH]2)cc(-c2ccncc2)c1
- Ki (Histamine H3 receptor [3]): 427 nM

Compound: c1ccc(-c2cccc(Cc3c[nH]cn3)c2)nc1
- Ki (Histamine H3 receptor [3]): 40.7 nM

Compound: CC(C)(C)CC(=O)c1cccc(Cc2c[nH]cn2)c1
- inhibition [5]: < 20%
- IC50 [4]: 1100 nM
- inhibition [6]: < 40%

Compound: c1nc(CC2CCNCC2)c[nH]1 [IMMEPIP]
- Ki (Histamine H3 receptor [3]): 0.407 nM

Compound: c1ccc(-c2cccc(Cc3cnc[nH]3)c2)cc1
- EC50 (Histamine H3 receptor [7]): 200 nM
- Ki (Histamine H3 receptor [3]): 33.1 nM

Compound: c1ccc(Cc2c[nH]cn2)cc1
- Ki (Histamine H3 receptor [3]): 162 nM

Compound: CC(C)(C)CC(=O)c1cccc(Cc2cnc[nH]2)c1
- EC50 (Histamine H3 receptor [7]): 79.4 nM
- Ki (Histamine H3 receptor [3]): 32.4 nM
- IC50 (Cytochrome P450 2D6): 1930 nM
- Ki (Histamine H4 receptor [8]): 5.62 nM
- Kb (Histamine H3 receptor [9]): 955 nM

Compound: N#Cc1ccc(Cc2c[nH]cn2)cc1
- Ki (Histamine H3 receptor [3]): 813 nM

Compound: c1cc(Cc2cnc[nH]2)cc(C2=NC(CC3CCCCC3)CO2)c1 (stereo unspecified)
- Ki (Histamine H3 receptor [3]): 708 nM

Compound: c1cc(Cc2cnc[nH]2)cc(C2=NC3(CCCC3)CO2)c1
- Ki (Histamine H3 receptor [3]): 39.8 nM

Compound: c1cc(Cc2cnc[nH]2)ccn1 [IMMETHRIDINE]
- EC50 (Histamine H3 receptor [10]): 0.2 nM

Compound: CC1(C)CN=C(c2cccc(Cc3cnc[nH]3)c2)OC1
- Ki (Histamine H3 receptor [3]): 2510 nM

Compound: CC1(C)COC(c2ccc(Cc3c[nH]cn3)cc2)=N1
- Ki (Histamine H3 receptor [3]): 2510 nM
- inhibition (Histamine H4 receptor [11]): 17%
- IC50 (Cytochrome P450 2D6): 543 nM
- IC50 [4]: 2520 nM

Compound: CC(C)(C)C#Cc1cccc(Cc2c[nH]cn2)c1
- EC50 (Histamine H3 receptor [7]): 7.94 nM
- Ki (Histamine H3 receptor [3]): 4.47 nM
- IC50 (Cytochrome P450 2D6): 1780 nM
- inhibition [5]: < 20%
- IC50 [4]: 1860 nM
- Ki (Histamine H4 receptor [8]): 5.62 nM
- Kb (Histamine H3 receptor [9]): 79.4 nM
- inhibition [6]: < 40%

Compound: CCCCc1c[nH]cn1
- EC50 (Histamine H3 receptor [10]): 31.6 nM
- Ki (Histamine H3 receptor [3]): 25.1 nM

Compound: CNCCc1c[nH]cn1
- Ki (Histamine H3 receptor [2]): 2.51 nM

Compound: Brc1ccc(Cc2c[nH]cn2)cc1
- EC50 (Histamine H3 receptor [7]): 631 nM
- Ki (Histamine H3 receptor [3]): 417 nM

Compound: c1ccc(COCCCc2c[nH]cn2)cc1 [PROXYFAN]
- Ki (Histamine H3 receptor [12]): 10 nM

Compound: CC1(C)COC(c2cccc(Cc3c[nH]cn3)c2)=N1
- EC50 (Histamine H3 receptor [7]): 15.8 nM
- Ki (Histamine H3 receptor [3]): 3.98 nM

Compound: N#Cc1cccc(Cc2c[nH]cn2)c1
- Ki (Histamine H3 receptor [3]): 155 nM

Compound: CC(C)(C)CCC#C[C@@H]1C[C@H]1c1c[nH]cn1 (single isomer, unassigned) [CIPRALISANT]
- Ki (Histamine H3 receptor [3]): 3.98 nM

Compound: c1ccc(C[C@@H]2COC(c3cccc(Cc4cnc[nH]4)c3)=N2)cc1
- EC50 (Histamine H3 receptor [7]): 79.4 nM
- Ki (Histamine H3 receptor [3]): 89.1 nM
- Kb (Histamine H3 receptor [9]): 2240 nM

Compound: CC1CC(C)(C)N=C(c2cccc(Cc3c[nH]cn3)c2)O1 (stereo unspecified)
- EC50 (Histamine H3 receptor [7]): 2 nM
- Ki (Histamine H3 receptor [3]): 1.26 nM
- IC50 (Cytochrome P450 2D6): 292 nM
- inhibition [5]: < 20%
- IC50 [4]: 873 nM
- Ki (Histamine H4 receptor [8]): 8.32 nM
- Kb (Histamine H3 receptor [9]): 3.98 nM
- inhibition [6]: < 40%

Compound: c1cc(Cc2c[nH]cn2)cc(C2=NCC3(CCCCC3)O2)c1
- Ki (Histamine H3 receptor [3]): 56.2 nM

Compound: Nc1ccc(Cc2c[nH]cn2)cc1
- Ki (Histamine H3 receptor [3]): 257 nM

Compound: C[C@@H](N)Cc1c[nH]cn1
- pD2 [13]: 8.4

Compound: CNCCc1cnc[nH]1
- pD2 [1]: 7.8

Compound: C(#Cc1cccc(Cc2c[nH]cn2)c1)c1ccccc1
- Ki (Histamine H3 receptor [3]): 1.82 nM
- IC50 (Cytochrome P450 2D6): 488 nM
- IC50 [4]: 2760 nM
